Literature values in patent US20030073608A1 (priority 2001, published 2003).

Tests used:
[1] = system: ventral tegmental dopamine cells (A10); details: limbic-related A10 cells; Bymaster et al., Eur. J. Pharmacol. 1998
[2] = system: substantia nigra dopamine cells (A9); details: Bymaster et al., Eur. J. Pharmacol. 1998

Question: Which “antagonism of electrophysiological responses in ventral tegmental dopamine cells (A10)” value [1] does the source give for CCCSc1nsnc1[C@H]1CN2CCC[C@H]1C2 [PTAC] here?
Answer: antagonizes electrophysiological responses

Question: And the “antagonism of substantia nigra dopamine cells (A9)” value [2]?
Answer: does not antagonize
